The text below walks through data of PubChem BioAssay (NCI).

Several values for one entry are separate records, joined by “and”; a condition that tells them apart may be missing. Equal entries are not always repeated.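 How tested: cells in 96-well plates exposed to compound for 48 hours at five concentrations. Abbreviation: GI50, concentration required for 50% inhibition of growth. At the TGI there is no net growth.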

Some test systems named below: OVCAR-5 ovarian; T-47D breast; SK-MEL-2 melanoma; MCF7 breast; NCI/ADR-RES ovarian; BT-549 breast; PC-3 prostate; MDA-MB-231 breast; SNB-75 CNS; A498 renal.
Common to all, as to assay: growth of human tumour cells (NCI), 48 h

With `C[C@H](Nc1cc(Cl)nc2c1cnn2[C@@H]1O[C@H](COP(=O)(O)CP(=O)(O)O)[C@@H](O)[C@H]1O)c1ccccc1F`, the GI50 with OVCAR-5 ovarian is over 100000 nM; with T-47D breast, over 100 µM; in the test on SK-MEL-2 melanoma, over 100000 nM; in the test with MCF7 breast, over 100000 nM; in the test with NCI/ADR-RES ovarian, over 100000 nM; in the test on BT-549 breast, over 100000 nM. Besides, the GI50 with PC-3 prostate is over 100 µM; with MDA-MB-231 breast it was over 100000 nM; in the test with SNB-75 CNS it was over 100000 nM; with A498 renal, 32300 nM. For the same compound, the TGI in the test on OVCAR-5 ovarian, in the test with T-47D breast, in the test on SK-MEL-2 melanoma, in the test with MCF7 breast, in the test on NCI/ADR-RES ovarian and with BT-549 breast was over 100 µM each time. In addition, the TGI in the test with PC-3 prostate was over 100 µM; in the test on MDA-MB-231 breast, over 100 µM; with SNB-75 CNS it was over 100 µM; with A498 renal it was over 100000 nM.
`CN(C)C/C=C/C(=O)Nc1cc2c(Nc3ccc(F)c(Cl)c3)ncnc2cc1O[C@H]1CCOC1`: the GI50 is 843 nM and 345 nM in the test with OVCAR-5 ovarian; 1380 nM and 1510 nM with SK-MEL-2 melanoma; 2230 nM and 2120 nM with MCF7 breast; 2270 nM and 1920 nM in the test with NCI/ADR-RES ovarian; 2280 nM and 2180 nM in the test with BT-549 breast; 3.19 µM and 3.26 µM in the test with PC-3 prostate. Besides, the GI50 was 1200 nM and 806 nM in the test on MDA-MB-231 breast; 1480 nM and 983 nM with SNB-75 CNS; 155 nM and 106 nM with A498 renal. Also, the TGI with OVCAR-5 ovarian is 13.3 µM and > 10 µM; in the test with T-47D breast, 15.9 µM and > 10 µM; with SK-MEL-2 melanoma, 2.93 µM and 4.13 µM; with MCF7 breast, 9.14 µM and > 10 µM; with NCI/ADR-RES ovarian, 14.8 µM and > 10 µM; in the test with BT-549 breast it was 9.6 µM and > 10 µM. For the same compound, the TGI was 12.8 µM and > 10 µM with PC-3 prostate; 7.06 µM and 4.75 µM in the test with MDA-MB-231 breast; 10.7 µM and 8.33 µM with SNB-75 CNS; 2550 nM and 2300 nM in the test on A498 renal.
Take `CN(C)c1ncnc2c1ncn2CCn1cnc2c(N(C)C)ncnc21`: the TGI in the test on OVCAR-5 ovarian, with T-47D breast, with SK-MEL-2 melanoma, with MCF7 breast, in the test on NCI/ADR-RES ovarian and with BT-549 breast was over 100 µM each time. Also, the TGI is over 100 µM with PC-3 prostate, over 100 µM in the test on MDA-MB-231 breast, over 100 µM with SNB-75 CNS and over 100000 nM in the test on A498 renal.
Turning to `Cc1ccc(Nc2oc(-c3ccccc3)nc2[P+](c2ccccc2)(c2ccccc2)c2ccccc2)cc1`, the GI50 is 1630 nM in the test with OVCAR-5 ovarian; 0.43 µM with T-47D breast; 625 nM in the test with SK-MEL-2 melanoma; 433 nM in the test with MCF7 breast; 1480 nM with NCI/ADR-RES ovarian; 1410 nM in the test with BT-549 breast. For the same compound, the GI50 in the test with PC-3 prostate is 0.585 µM; in the test on MDA-MB-231 breast it was 788 nM; in the test with SNB-75 CNS it was 1150 nM; in the test on A498 renal, 697 nM. Also, the TGI in the test on OVCAR-5 ovarian turned out to be 4.38 µM; with T-47D breast, 2.33 µM; in the test with SK-MEL-2 melanoma, 1.85 µM; in the test with MCF7 breast it was 1.98 µM; with NCI/ADR-RES ovarian, 3.1 µM; in the test with BT-549 breast, 2.92 µM. Further, the TGI came to 2.01 µM with PC-3 prostate, 2.17 µM in the test with MDA-MB-231 breast, 3.71 µM in the test on SNB-75 CNS and 2360 nM with A498 renal.
Turning to `CC1(Br)Cc2ccccc2C1=O` (stereo unspecified), the TGI in the test with OVCAR-5 ovarian was 14.2 µM; in the test on T-47D breast, 21.2 µM; in the test with SK-MEL-2 melanoma it was 24.2 µM; in the test on MCF7 breast, 8.52 µM; with NCI/ADR-RES ovarian, over 100 µM; with BT-549 breast, 5.03 µM. Besides, the TGI in the test with PC-3 prostate is 22.5 µM; with MDA-MB-231 breast it was 22.9 µM; in the test on SNB-75 CNS, 27 µM; with A498 renal, 57200 nM. Also, the values for the GI50 with T-47D breast and with MCF7 breast were 4.18 µM and 2220 nM, respectively.
